# Laboratory results published in patent US10870832B2, “Use of small molecules to enhance MAFA expression in pancreatic endocrine cells” (Janssen Biotech, Inc., priority 2014, dated 2020).
# Columns and labels:
# Assay in all cases: Kinase profiling of R428
# Assay type in all cases: biochemical
# GSK3 a(h) = GSK3 a(h) (Homo sapiens, UniProt P49840); conditions: 100 μM ATP, lower number = more robust inhibition
# Description: (§1) The efficiency of the AXL inhibitor R428 for targeting different kinases was assessed by Kinase Profiling Services using 100 μM ATP concentration (EMD Millipore). R428 was tested at 1 and 10 μM. Table IV lists the kinases profiled along with the efficiency in targeting the kinases with a lower number indicating a more robust inhibition of a particular kinase.
# GSK313(h) = GSK313(h) (Homo sapiens, UniProt P49841); conditions: 100 μM ATP, lower number = more robust inhibition
# Description: as §1
# ALK4(h) = ALK4(h) (Homo sapiens, UniProt P36896); conditions: 100 μM ATP, lower number = more robust inhibition
# Description: as §1
# Aurora-A(h) = target: T1, Aurora-A(h) (Homo sapiens, UniProt O14965); conditions: for efficiency in targeting Aurora-A(h): 100 μM ATP, lower number = more robust inhibition
# T1 sequence (O14965 1-403): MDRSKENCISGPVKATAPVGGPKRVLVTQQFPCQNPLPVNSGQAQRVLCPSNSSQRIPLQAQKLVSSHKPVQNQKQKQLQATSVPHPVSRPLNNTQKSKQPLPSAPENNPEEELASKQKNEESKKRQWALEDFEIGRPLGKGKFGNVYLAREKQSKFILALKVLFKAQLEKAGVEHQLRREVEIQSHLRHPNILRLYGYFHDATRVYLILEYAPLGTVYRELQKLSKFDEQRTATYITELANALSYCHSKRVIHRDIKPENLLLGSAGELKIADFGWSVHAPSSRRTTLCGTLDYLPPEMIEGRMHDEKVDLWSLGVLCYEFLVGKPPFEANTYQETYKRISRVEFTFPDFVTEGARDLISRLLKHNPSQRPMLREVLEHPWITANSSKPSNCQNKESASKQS
# Description: as §1
# Pim-2(h) = Pim-2(h) (Homo sapiens, UniProt Q9P1W9); conditions: 100 μM ATP, lower number = more robust inhibition
# Description: as §1
# CHK1(h) = CHK1(h) (Homo sapiens, UniProt O14757); conditions: 100 μM ATP, lower number = more robust inhibition
# Description: as §1
# cSRC(h) = cSRC(h) (Homo sapiens, UniProt P12931); conditions: 100 μM ATP, lower number = more robust inhibition
# Description: as §1
# IRAK4(h) = IRAK4(h) (Homo sapiens, UniProt Q9NWZ3); conditions: 100 μM ATP, lower number = more robust inhibition
# Description: as §1
# Plk3(h) = Plk3(h) (Homo sapiens, UniProt Q9H4B4); conditions: 100 μM ATP, lower number = more robust inhibition
# Description: as §1
# JAK3(h) = JAK3(h) (Homo sapiens, UniProt P52333); conditions: 100 μM ATP, lower number = more robust inhibition
# Description: as §1
# Rsk3(h) = Rsk3(h) (Homo sapiens, UniProt Q15349); conditions: for efficiency in targeting Rsk3(h): 100 μM ATP, lower number = more robust inhibition
# Description: as §1
# JAK2(h) = JAK2(h) (Homo sapiens, UniProt O60674); conditions: 100 μM ATP, lower number = more robust inhibition
# Description: as §1
# PAK4(h) = PAK4(h) (Homo sapiens, UniProt O96013); conditions: 100 μM ATP, lower number = more robust inhibition
# Description: as §1
# CLK2(h) = CLK2(h) (Homo sapiens, UniProt P49760); conditions: 100 μM ATP, lower number = more robust inhibition
# Description: as §1
# CDK5/p35(h) = CDK5/p35(h) (Homo sapiens, UniProt Q00535); conditions: 100 μM ATP, lower number = more robust inhibition
# Description: as §1
# Axl(h) = target: T2, Axl(h) (Homo sapiens, UniProt P30530); conditions: for efficiency in targeting Axl(h): 100 μM ATP, lower number = more robust inhibition
# T2 sequence (P30530 26-894): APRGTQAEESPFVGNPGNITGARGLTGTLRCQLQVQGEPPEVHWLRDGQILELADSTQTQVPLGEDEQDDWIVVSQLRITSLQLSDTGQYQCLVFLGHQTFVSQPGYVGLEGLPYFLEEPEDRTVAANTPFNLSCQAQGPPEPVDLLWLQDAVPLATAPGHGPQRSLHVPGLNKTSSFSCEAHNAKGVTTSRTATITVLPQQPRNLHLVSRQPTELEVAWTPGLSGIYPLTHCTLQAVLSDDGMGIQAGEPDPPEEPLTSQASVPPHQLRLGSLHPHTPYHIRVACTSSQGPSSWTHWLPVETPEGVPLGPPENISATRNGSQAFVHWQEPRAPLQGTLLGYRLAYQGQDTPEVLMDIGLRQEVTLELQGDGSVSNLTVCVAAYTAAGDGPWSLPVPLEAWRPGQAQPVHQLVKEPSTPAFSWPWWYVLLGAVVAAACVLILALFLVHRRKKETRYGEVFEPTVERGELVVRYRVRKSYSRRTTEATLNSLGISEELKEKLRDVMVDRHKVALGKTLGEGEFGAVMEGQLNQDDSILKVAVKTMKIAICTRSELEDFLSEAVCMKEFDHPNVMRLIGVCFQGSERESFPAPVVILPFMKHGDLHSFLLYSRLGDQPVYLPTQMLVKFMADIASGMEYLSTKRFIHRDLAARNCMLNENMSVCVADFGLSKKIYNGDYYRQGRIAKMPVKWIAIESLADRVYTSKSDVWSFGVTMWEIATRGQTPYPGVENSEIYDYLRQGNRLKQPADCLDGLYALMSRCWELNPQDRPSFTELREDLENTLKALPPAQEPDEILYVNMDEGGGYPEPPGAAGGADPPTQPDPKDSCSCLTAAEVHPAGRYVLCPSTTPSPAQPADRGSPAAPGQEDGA
# Description: as §1
# Plk1(h) = Plk1(h) (Homo sapiens, UniProt P53350); conditions: 100 μM ATP, lower number = more robust inhibition
# Description: as §1
# EGFR(h) = EGFR(h) (Homo sapiens, UniProt P00533); conditions: 100 μM ATP, lower number = more robust inhibition
# Description: as §1
# MAPK1(h) = MAPK1(h) (Homo sapiens, UniProt P27361); conditions: 100 μM ATP, lower number = more robust inhibition
# Description: as §1
# Chain of Rsk3(h) (Q15349 whole entry): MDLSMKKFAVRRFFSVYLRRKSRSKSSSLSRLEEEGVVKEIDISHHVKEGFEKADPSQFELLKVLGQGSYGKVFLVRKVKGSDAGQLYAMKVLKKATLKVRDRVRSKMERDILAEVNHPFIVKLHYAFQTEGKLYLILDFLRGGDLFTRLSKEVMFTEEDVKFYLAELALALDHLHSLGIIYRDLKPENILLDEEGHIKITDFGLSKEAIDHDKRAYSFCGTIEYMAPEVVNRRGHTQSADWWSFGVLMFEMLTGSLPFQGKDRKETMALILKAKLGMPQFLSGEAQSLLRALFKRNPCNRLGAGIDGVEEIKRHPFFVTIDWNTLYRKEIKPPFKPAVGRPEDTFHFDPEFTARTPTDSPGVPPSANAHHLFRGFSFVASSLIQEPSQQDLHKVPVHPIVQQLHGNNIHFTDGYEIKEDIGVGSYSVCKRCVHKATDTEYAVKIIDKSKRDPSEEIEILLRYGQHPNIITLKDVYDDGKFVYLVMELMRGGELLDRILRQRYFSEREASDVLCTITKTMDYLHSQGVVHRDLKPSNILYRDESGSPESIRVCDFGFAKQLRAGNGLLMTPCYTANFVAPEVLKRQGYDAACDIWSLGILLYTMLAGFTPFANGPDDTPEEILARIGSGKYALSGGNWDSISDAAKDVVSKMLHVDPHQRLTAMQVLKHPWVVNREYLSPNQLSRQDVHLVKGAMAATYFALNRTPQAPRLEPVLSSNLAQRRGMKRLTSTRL
# Chain of cSRC(h) (P12931 whole entry): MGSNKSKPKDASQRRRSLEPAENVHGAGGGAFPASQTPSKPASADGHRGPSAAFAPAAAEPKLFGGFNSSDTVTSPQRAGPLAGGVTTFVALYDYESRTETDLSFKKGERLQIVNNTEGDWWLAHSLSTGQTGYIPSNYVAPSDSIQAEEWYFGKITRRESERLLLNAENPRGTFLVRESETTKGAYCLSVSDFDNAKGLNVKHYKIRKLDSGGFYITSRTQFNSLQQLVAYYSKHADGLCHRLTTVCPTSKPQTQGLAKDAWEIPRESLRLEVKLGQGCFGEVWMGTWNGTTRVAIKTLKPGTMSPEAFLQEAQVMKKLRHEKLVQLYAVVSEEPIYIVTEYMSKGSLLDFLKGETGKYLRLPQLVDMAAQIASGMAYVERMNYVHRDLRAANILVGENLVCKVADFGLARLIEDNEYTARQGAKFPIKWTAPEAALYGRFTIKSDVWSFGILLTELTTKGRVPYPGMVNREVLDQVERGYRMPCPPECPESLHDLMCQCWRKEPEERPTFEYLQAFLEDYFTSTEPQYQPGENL
# Chain of JAK2(h) (O60674 whole entry): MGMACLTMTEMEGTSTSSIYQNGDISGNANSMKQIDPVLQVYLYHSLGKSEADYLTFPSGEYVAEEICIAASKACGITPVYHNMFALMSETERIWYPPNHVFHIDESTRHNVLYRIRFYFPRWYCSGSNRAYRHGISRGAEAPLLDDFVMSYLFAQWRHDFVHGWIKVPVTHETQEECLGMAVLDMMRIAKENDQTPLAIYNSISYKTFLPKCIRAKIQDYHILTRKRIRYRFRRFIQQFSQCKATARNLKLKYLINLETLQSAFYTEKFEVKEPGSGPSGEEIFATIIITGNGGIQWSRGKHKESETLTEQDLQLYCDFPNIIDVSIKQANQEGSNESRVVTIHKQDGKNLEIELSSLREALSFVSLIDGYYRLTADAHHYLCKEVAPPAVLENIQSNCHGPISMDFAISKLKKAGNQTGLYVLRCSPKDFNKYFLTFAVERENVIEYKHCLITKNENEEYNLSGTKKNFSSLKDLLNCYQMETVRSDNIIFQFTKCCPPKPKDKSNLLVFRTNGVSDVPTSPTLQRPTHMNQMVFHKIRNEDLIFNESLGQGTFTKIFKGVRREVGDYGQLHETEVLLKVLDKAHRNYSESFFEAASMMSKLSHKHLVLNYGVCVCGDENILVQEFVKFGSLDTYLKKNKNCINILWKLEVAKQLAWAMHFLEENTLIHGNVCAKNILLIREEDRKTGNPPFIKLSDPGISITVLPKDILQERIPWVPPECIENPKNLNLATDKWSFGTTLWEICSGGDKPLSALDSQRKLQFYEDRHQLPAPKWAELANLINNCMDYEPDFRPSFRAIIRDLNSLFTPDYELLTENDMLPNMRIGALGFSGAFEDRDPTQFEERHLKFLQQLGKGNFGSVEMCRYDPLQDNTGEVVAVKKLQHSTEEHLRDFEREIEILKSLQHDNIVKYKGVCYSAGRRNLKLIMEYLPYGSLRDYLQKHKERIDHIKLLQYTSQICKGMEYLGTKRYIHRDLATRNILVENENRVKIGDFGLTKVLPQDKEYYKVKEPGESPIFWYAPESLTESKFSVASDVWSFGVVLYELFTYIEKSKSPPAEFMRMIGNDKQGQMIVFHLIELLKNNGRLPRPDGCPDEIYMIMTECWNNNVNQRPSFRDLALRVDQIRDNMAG
# Chain of ALK4(h) (P36896 24-505): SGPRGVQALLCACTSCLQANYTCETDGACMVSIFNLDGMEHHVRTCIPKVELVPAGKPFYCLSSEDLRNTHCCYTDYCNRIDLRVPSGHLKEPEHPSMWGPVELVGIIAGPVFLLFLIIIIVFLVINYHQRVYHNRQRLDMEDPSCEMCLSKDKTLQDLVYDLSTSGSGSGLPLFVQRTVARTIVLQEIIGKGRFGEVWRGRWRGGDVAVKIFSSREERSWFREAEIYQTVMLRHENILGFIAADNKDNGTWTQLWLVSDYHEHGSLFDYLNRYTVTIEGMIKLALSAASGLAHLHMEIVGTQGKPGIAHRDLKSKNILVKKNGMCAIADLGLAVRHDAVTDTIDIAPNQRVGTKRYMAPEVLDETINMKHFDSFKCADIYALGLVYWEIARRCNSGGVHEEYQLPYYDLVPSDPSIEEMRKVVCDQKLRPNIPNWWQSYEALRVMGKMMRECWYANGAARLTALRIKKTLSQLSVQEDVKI
# Chain of GSK313(h) (P49841 whole entry): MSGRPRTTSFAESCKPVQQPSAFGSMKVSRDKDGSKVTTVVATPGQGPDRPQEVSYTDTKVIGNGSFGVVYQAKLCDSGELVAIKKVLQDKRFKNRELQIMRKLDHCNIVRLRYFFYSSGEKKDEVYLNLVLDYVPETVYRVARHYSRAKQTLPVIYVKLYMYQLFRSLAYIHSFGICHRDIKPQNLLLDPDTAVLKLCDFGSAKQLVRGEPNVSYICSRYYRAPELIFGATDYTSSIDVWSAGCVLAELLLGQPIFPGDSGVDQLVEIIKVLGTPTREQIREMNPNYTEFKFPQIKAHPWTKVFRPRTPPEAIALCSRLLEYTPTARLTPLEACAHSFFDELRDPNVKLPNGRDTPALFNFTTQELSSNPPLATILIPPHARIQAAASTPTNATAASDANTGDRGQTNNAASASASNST
# Chain of EGFR(h) (P00533 25-1210): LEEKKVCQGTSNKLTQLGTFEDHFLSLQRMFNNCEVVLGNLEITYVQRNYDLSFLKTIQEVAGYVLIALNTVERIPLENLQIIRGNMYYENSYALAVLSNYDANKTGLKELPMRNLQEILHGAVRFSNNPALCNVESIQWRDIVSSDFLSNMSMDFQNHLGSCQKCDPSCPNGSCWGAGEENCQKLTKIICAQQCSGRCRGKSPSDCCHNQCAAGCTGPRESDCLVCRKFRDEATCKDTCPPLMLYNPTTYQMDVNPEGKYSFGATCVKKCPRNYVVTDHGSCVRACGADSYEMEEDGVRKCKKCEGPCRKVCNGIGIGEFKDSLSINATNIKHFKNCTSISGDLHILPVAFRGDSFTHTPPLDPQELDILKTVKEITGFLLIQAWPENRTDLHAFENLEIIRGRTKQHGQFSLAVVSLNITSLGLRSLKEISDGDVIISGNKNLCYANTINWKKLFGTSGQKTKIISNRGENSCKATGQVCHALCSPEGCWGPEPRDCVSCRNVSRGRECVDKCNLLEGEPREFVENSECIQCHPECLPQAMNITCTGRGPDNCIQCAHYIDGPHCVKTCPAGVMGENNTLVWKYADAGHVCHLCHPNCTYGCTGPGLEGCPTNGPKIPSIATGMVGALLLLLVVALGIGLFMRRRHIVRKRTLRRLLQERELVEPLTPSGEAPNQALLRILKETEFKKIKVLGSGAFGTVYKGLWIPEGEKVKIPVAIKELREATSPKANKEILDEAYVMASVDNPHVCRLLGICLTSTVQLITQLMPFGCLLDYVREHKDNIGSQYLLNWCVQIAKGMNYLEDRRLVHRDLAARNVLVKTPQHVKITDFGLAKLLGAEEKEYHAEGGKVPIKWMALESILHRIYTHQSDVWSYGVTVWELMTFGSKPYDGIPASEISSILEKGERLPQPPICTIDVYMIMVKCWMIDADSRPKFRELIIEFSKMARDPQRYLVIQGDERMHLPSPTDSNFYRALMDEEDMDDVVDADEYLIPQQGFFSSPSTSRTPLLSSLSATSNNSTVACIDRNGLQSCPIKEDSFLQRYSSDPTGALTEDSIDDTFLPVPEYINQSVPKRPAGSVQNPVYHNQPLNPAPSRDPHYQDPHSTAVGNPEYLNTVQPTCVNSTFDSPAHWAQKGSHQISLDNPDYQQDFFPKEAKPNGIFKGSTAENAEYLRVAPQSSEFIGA
# Chain of IRAK4(h) (Q9NWZ3 whole entry): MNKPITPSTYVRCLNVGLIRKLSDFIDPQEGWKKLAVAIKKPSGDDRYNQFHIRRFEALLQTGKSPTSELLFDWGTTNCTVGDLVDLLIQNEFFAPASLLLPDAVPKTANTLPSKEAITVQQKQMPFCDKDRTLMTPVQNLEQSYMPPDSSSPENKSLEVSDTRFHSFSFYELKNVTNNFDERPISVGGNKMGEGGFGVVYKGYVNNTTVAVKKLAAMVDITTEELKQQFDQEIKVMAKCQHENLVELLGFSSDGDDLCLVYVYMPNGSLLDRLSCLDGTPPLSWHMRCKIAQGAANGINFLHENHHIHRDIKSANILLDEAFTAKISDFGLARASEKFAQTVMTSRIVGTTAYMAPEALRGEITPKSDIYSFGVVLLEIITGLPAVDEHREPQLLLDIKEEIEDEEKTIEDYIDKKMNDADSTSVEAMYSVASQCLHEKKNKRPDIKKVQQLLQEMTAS
smiles,measurement,setting,value
"Nc1nc(Nc2ccc3c(c2)CC[C@@H](N2CCCC2)CC3)nn1-c1cc2c(nn1)-c1ccccc1CCC2 [R428, 1H-1,2,4-Triazole-3,5-diamine, 1-(6,7-dihydro-5H-benzo[6,7]cyclohepta[1,2-c]pyridazin-3-yl) N3-[(7S)-6,7,8,9-tetrahydro-7-(1-pyrrolidinyl)-5H-benzocyclohepten-2-yl]-]",efficiency in targeting GSK3 a(h),GSK3 a(h); R428 @ 1 μM,95
same,efficiency in targeting GSK3 a(h),GSK3 a(h); R428 @ 10 μM,105
same,efficiency in targeting GSK313(h),GSK313(h); R428 @ 1 μM,106
same,efficiency in targeting GSK313(h),GSK313(h); R428 @ 10 μM,99
same,efficiency in targeting ALK4(h),ALK4(h); R428 @ 1 μM,84
same,efficiency in targeting ALK4(h),ALK4(h); R428 @ 10 μM,48
same,efficiency in targeting Aurora-A(h),Aurora-A(h); R428 @ 1 μM,20
same,efficiency in targeting Aurora-A(h),Aurora-A(h); R428 @ 10 μM,3
same,inhibition of AuroraA (in words),Aurora-A(h); at 1 and 10 μM,potently inhibits
same,efficiency in targeting Pim-2(h),Pim-2(h); R428 @ 1 μM,87
same,efficiency in targeting Pim-2(h),Pim-2(h); R428 @ 10 μM,74
same,efficiency in targeting CHK1(h),CHK1(h); R428 @ 1 μM,71
same,efficiency in targeting CHK1(h),CHK1(h); R428 @ 10 μM,23
same,efficiency in targeting cSRC(h),cSRC(h); R428 @ 1 μM,51
same,efficiency in targeting cSRC(h),cSRC(h); R428 @ 10 μM,10
same,efficiency in targeting IRAK4(h),IRAK4(h); R428 @ 1 μM,94
same,efficiency in targeting IRAK4(h),IRAK4(h); R428 @ 10 μM,51
same,efficiency in targeting Plk3(h),Plk3(h); R428 @ 1 μM,101
same,efficiency in targeting Plk3(h),Plk3(h); R428 @ 10 μM,81
same,efficiency in targeting JAK3(h),JAK3(h); R428 @ 1 μM,69
same,efficiency in targeting JAK3(h),JAK3(h); R428 @ 10 μM,18
same,efficiency in targeting Rsk3(h),Rsk3(h); R428 @ 1 μM,2
same,efficiency in targeting Rsk3(h),Rsk3(h); R428 @ 10 μM,1
same,inhibition of RSK3 (in words),Rsk3(h); at 1 and 10 μM,potently inhibits
same,efficiency in targeting JAK2(h),JAK2(h); R428 @ 1 μM,96
same,efficiency in targeting JAK2(h),JAK2(h); R428 @ 10 μM,41
same,efficiency in targeting PAK4(h),PAK4(h); R428 @ 1 μM,97
same,efficiency in targeting PAK4(h),PAK4(h); R428 @ 10 μM,73
same,efficiency in targeting CLK2(h),CLK2(h); R428 @ 1 μM,78
same,efficiency in targeting CLK2(h),CLK2(h); R428 @ 10 μM,28
same,efficiency in targeting CDK5/p35(h),CDK5/p35(h); R428 @ 1 μM,101
same,efficiency in targeting CDK5/p35(h),CDK5/p35(h); R428 @ 10 μM,94
same,efficiency in targeting Axl(h),Axl(h); R428 @ 1 μM,−1
same,efficiency in targeting Axl(h),Axl(h); R428 @ 10 μM,−1
same,inhibition of AXL (in words),Axl(h); kinase profiling results,inhibits AXL as expected
same,efficiency in targeting Plk1(h),Plk1(h); R428 @ 1 μM,83
same,efficiency in targeting Plk1(h),Plk1(h); R428 @ 10 μM,65
same,efficiency in targeting EGFR(h),EGFR(h); R428 @ 1 μM,89
same,efficiency in targeting EGFR(h),EGFR(h); R428 @ 10 μM,40
same,efficiency in targeting MAPK1(h),MAPK1(h); R428 @ 1 μM,108
same,efficiency in targeting MAPK1(h),MAPK1(h); R428 @ 10 μM,106
